The values that follow come from patent publication US11542492B2 (Celgene CAR LLC, priority 2009, dated 2023).

For assay [1], the target named is T1, p110α/p85α (PI3Kα) (Homo sapiens, UniProt P42336).
T1 construct: purchased BPS Bioscience or Millipore 40620 (BPS Bioscience) or 14-602 (Millipore)
The assay can be described thus: HTRF assay, p110α/p85α. Format: biochemical. The note with it: read-out: PI3Kα-HTRF-IC50 nM Inhibition Designation. The protocol: HTRF Assay Protocol for Potency Assessment Against the Active Form of p110α/p85α:
The mechanics of the assay platform are best described by the vendor (Millipore, Billerica, Mass.) on their website at the following URL: http://www.millipore.com/coa/tech1/74jt4z.
Briefly, Stop solution (Stop A, #33-007 and Stop B, #33-009; 3:1 ratio) and Detection Mix (DMC, #33-015 with DMA, #33-011 and DMB, #33-013; 18:1:1 ratio) were prepared as recommended by the manufacturer ˜2 hrs prior to use. […] Lipid kinase reactions were started with the addition of 5 μL of ATP solution, mixed for 15 sec on a rotary plate shaker and incubated for 15-30 minutes at 25° C. Next, reactions were stopped with a 5 μL addition of Stop solution followed by a 5 μL volume of Detection Mix. […] At the conclusion of each assay, the HTRF ratio from fluorescence emission values for each well was calculated and % Inhibition determined from averaged controls wells. % Inhibition values for each compound re then plotted against inhibitor concentration to estimate IC50 from log [Inhibitor] vs Response, Variable Slope model in GraphPad Prism from GraphPad Software (San Diego, Calif.).
A general note: TR-FRET usually uses a lanthanide donor and a delayed reading to cut background.

The target in assay [2] is T2, HCV NS3/4A 1b protease enzyme (wild type) (Hepatitis C virus genotype 1b, UniProt P26663).
T2 construct: 10× stocks of NS3/4A protease enzyme from Bioenza (Mountain View, Calif.); purchased Bioenza
T2 sequence (P26663 1658-1711): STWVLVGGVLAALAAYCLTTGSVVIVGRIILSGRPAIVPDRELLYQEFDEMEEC
T2 sequence (P26663 1027-1657): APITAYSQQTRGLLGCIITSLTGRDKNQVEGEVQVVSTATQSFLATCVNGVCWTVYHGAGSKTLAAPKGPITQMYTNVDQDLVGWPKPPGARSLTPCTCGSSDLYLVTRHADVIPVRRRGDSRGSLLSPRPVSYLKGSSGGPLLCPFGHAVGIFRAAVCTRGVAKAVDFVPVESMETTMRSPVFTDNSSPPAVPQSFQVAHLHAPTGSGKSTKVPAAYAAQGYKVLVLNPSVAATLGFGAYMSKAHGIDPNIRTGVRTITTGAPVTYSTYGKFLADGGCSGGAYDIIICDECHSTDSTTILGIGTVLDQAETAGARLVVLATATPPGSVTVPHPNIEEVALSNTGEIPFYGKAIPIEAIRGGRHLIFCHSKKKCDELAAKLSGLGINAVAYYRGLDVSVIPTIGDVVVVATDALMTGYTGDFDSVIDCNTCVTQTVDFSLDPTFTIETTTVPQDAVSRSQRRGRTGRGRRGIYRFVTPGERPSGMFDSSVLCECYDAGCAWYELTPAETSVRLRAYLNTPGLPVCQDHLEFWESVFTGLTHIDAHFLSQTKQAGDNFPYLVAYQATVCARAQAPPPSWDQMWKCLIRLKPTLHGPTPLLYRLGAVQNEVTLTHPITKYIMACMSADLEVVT
In words: HCV protease FRET assay (IC50_APP), wild type NS3/4A 1b. Format: biochemical. The protocol: HCV Protease FRET Assay for WT and Mutated NS3/4A 1b Enzymes (IC50_APP).
The following protocol was used to generate “apparent” IC50 (IC50_APP) values as depicted in Table 6, below. Without wishing to be bound by any particular theory, it is believed that IC50_APP, contrasted with IC50 values, may provide a more useful indication of time-dependent inhibition, and are thus more representative of binding affinity. […] 5 μL of each enzyme were added to Corning (#3575) 384-well, black, microtiter plates (Corning, N.Y.) after spotting a 0.5 μL volume of 50% DMSO and serially diluted compounds prepared in 50% DMSO. Protease reactions were immediately started after enzyme addition with the addition of 45 μL of the FRET substrate and monitored for 60-90 minutes at λex485/λem520 in a Synergy plate reader from BioTek (Winooski, Vt.). At the conclusion of each assay, progress curves from each well were examined for linear reaction kinetics and fit statistics (R^2, 95% confidence intervals, absolute sum of squares). Initial velocity (0 minutes to 15+ minutes) from each reaction was determined from the slope of a plot of relative fluorescence units vs time (minutes) and then plotted against inhibitor concentration as a percent of the no inhibitor and no enzyme controls to estimate apparent IC50 from log [Inhibitor] vs Response. (Variable Slope model in GraphPad Prism from GraphPad Software (San Diego, Calif.).)

As a reminder, the IC50 is the concentration that inhibits the measured activity by half.

T1 sequence (P42336 whole entry): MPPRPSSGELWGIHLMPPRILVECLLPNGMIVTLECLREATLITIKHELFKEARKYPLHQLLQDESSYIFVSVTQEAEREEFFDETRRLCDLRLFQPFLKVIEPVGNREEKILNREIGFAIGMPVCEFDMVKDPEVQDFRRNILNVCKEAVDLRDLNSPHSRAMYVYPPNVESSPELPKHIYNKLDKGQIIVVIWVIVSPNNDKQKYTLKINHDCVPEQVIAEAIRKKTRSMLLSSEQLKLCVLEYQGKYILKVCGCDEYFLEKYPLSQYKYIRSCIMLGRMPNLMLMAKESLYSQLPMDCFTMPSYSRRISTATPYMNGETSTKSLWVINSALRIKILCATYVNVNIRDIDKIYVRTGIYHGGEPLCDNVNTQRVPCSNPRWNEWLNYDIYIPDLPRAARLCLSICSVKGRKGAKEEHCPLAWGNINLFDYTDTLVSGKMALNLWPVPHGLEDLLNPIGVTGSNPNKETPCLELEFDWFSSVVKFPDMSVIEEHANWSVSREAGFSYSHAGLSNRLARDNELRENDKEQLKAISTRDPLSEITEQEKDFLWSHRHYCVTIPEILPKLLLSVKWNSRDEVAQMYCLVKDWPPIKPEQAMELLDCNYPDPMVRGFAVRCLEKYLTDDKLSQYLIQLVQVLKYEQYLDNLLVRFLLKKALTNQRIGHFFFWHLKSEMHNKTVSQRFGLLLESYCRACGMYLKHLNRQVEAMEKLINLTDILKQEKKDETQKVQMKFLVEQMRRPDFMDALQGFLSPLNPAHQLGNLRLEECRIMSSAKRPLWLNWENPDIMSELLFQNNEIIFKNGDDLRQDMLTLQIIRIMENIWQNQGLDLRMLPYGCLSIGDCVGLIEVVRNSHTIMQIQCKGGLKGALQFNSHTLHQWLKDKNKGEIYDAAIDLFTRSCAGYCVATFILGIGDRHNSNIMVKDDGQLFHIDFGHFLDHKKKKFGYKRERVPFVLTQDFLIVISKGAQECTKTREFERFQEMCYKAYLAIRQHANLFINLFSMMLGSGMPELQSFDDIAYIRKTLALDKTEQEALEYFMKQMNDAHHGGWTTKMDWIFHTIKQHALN
T1 sequence (P27986 whole entry partner): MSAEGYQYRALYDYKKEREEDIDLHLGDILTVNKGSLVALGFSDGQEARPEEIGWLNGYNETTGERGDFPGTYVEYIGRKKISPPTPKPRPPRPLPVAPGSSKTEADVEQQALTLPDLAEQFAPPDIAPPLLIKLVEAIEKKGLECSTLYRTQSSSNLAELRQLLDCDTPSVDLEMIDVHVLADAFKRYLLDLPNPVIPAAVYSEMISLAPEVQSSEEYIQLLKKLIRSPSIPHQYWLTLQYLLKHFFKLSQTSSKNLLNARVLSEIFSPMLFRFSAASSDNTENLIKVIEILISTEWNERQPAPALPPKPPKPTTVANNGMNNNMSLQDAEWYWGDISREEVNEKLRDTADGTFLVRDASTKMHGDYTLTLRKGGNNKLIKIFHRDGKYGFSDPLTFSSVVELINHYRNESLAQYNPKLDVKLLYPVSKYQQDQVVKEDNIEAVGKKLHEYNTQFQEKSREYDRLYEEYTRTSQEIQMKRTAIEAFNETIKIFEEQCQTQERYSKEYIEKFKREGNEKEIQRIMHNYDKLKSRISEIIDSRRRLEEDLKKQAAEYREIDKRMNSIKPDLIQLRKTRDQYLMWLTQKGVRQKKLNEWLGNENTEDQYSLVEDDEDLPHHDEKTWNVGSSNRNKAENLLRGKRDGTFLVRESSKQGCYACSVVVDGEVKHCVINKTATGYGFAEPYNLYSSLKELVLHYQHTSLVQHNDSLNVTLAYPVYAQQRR

As for `O=C(N1CCN(Cc2cc3nc(-c4cccc5[nH]ncc45)nc(N4CCOCC4)c3s2)CC1)n1ccnc1` [XXII-16, (4-((2-(1H-indazol-4-yl)-4-morpholinothieno[3,2-d]pyrimidin-6-yl)methyl)piperazin-1-yl)(1H-imidazol-1-yl)methanone], the IC50 in assay [1] fell in the range of 10 to 100 nM. Take `CC(=O)CC(=O)N1CCN(Cc2cc3nc(-c4cccc5[nH]ncc45)nc(N4CCOCC4)c3s2)CC1` [XXII-14]: in assay [1], the half-maximal inhibitory concentration (IC50) was in the range of 10 to 100 nM. For `C=CC(=O)N1CCN(Cc2cc3nc(-c4ccccc4)nc(N4CCOCC4)c3s2)CC1` [XXII-19], the IC50 in assay [1] was 1000 to 10000 nM. Take `C=C[C@@H]1C[C@]1(NC(=O)[C@@H]1CC(OC(=O)N2Cc3cccc(F)c3C2)CN1C(=O)[C@H](CCNC(=O)[C@@H]1CCC(=O)O1)NC(=O)OC(C)(C)C)C(=O)NS(=O)(=O)C1CC1` (stereo partly drawn) [XVI-11, (5S)-1-((S)-2-(tert-butoxycarbonylamino)-4-((S)-5-oxotetrahydrofuran-2-carboxamido)butanoyl)-5-((1R,2S)-1-(cyclopropylsulfonylcarbamoyl)-2-vinylcyclopropylcarbamoyl)pyrrolidin-3-yl 4-fluoroisoindoline-2-carboxylate]: the IC50 in assay [2] fell in the range of 0.1 to 1 µM. For `O=C(N1CCN(Cc2cc3nc(-c4ccccc4)nc(N4CCOCC4)c3s2)CC1)n1ccnc1` [XXII-18], the IC50 in assay [1] was in the range of 1000 to 10000 nM. As for `C=C[C@@H]1C[C@]1(NC(=O)[C@@H]1CC(OC(=O)N2Cc3cccc(F)c3C2)CN1C(=O)[C@H]1CCC(=O)O1)C(=O)NS(=O)(=O)C1CC1` (stereo partly drawn) [XVI-22, (5S)-5-((1R,2S)-1-(cyclopropylsulfonylcarbamoyl)-2-vinylcyclopropylcarbamoyl)-1-((R)-5-oxotetrahydrofuran-2-carbonyl)pyrrolidin-3-yl 4-fluoroisoindoline-2-carboxylate], in assay [2], the IC50 was > 1 µM. Regarding `C=C[C@@H]1C[C@]1(NC(=O)[C@@H]1CC(OC(=O)N2Cc3cccc(F)c3C2)CN1C(=O)CNC(=O)[C@H]1CCC(=O)O1)C(=O)NS(=O)(=O)C1CC1` (stereo partly drawn) [XVI-12, (5S)-5-((1R,2S)-1-(cyclopropylsulfonylcarbamoyl)-2-vinylcyclopropylcarbamoyl)-1-(2-((R)-5-oxotetrahydrofuran-2-carboxamido)acetyl)pyrrolidin-3-yl 4-fluoroisoindoline-2-carboxylate], in assay [2], the IC50 lay in the range of 0.1 to 1 µM. Consider `C=C[C@@H]1C[C@]1(NC(=O)[C@@H]1CC(OC(=O)N2Cc3cccc(F)c3C2)CN1C(=O)[C@H](CNC(=O)[C@H]1CCC(=O)O1)NC(=O)OC(C)(C)C)C(=O)NS(=O)(=O)C1CC1` (stereo partly drawn) [XVI-20, (5S)-1-((S)-2-(tert-butoxycarbonylamino)-3-((R)-5-oxotetrahydrofuran-2-carboxamido)propanoyl)-5-((1R,2S)-1-(cyclopropylsulfonylcarbamoyl)-2-vinylcyclopropylcarbamoyl)pyrrolidin-3-yl 4-fluoroisoindoline-2-carboxylate], for which the IC50 in assay [2] is 0.001 to 0.01 µM. For the compound `C=CC(=O)n1cc(-c2ccc3c(c2)N(c2nc4c(s2)C(=O)NC(C)(C)C4)CCO3)cn1` [XXIII-5, 2-(6-(1-acryloyl-1H-pyrazol-4-yl)-2H-benzo[b][1,4]oxazin-4(3H)-yl)-6,6-dimethyl-6,7-dihydrothiazolo[5,4-c]pyridin-4(5H)-one], the half-maximal inhibitory concentration (IC50) in assay [1] lay within 100 to 1000 nM. For the compound `C=C[C@@H]1C[C@]1(NC(=O)[C@@H]1CC(OC(=O)N2Cc3cccc(F)c3C2)CN1C(=O)[C@H](CCNC(=O)[C@H]1CCC(=O)O1)NC(=O)OC(C)(C)C)C(=O)NS(=O)(=O)C1CC1` (stereo partly drawn) [XVI-10, (5S)-1-((S)-2-(tert-butoxycarbonylamino)-4-((R)-5-oxotetrahydrofuran-2-carboxamido)butanoyl)-5-((1R,2S)-1-(cyclopropylsulfonylcarbamoyl)-2-vinylcyclopropylcarbamoyl)pyrrolidin-3-yl 4-fluoroisoindoline-2-carboxylate], the IC50 in assay [2] was in the range of 0.1 to 1 µM.
